Experimental data as given in the CheMixHub viscosity set.

Experiment: xn = mol fraction of the nth substance listed

C1C[C@@H]2[C@H]3CC[C@H](C3)[C@@H]2C1 + CC(C)OC(C)C
viscosity [mPa·s], 101.33 kPa
Details | x2 = 0.1 | x2 = 0.2043 | x2 = 0.3168 | x2 = 0.4 | x2 = 0.4997 | x2 = 0.5937 | x2 = 0.703 | x2 = 0.8066 | x2 = 0.9085
293.15 K | 2.279 | 1.725 | 1.309 | 1.074 | 0.865 | 0.719 | 0.592 | 0.493 | 0.412
298.15 K | 2.062 | 1.572 | 1.206 | 0.995 | 0.802 | 0.666 | 0.556 | 0.473 | 0.391
303.15 K | 1.88 | 1.441 | 1.116 | 0.926 | 0.76 | 0.631 | 0.532 | 0.454 | 0.376
308.15 K | 1.712 | 1.324 | 1.026 | 0.861 | 0.706 | 0.593 | 0.497 | 0.426 | 0.357
313.15 K | 1.573 | 1.226 | 0.95 | 0.799 | 0.659 | 0.558 | 0.469 | 0.402 | 0.338

CCC(=O)O + CCC(C)=O
viscosity [mPa·s], 101 kPa
Details | x2 = 0.0847 | x2 = 0.1723 | x2 = 0.2585 | x2 = 0.357 | x2 = 0.4544 | x2 = 0.5554 | x2 = 0.6602 | x2 = 0.7691 | x2 = 0.8822
293.15 K | 1.038 | 0.9722 | 0.9093 | 0.8393 | 0.7718 | 0.7038 | 0.6354 | 0.5665 | 0.4974
303.15 K | 0.9022 | 0.846 | 0.7921 | 0.7324 | 0.6751 | 0.6177 | 0.556 | 0.5027 | 0.4455
313.15 K | 0.7975 | 0.7494 | 0.7031 | 0.6516 | 0.6019 | 0.5519 | 0.5015 | 0.4508 | 0.4

ClCCCCCl + CCC(C)O
101 kPa
Details | viscosity [mPa·s]
298.15 K, x1 = 0.1012 | 2.118
298.15 K, x1 = 0.2021 | 1.633
298.15 K, x1 = 0.2996 | 1.408
298.15 K, x1 = 0.4004 | 1.281
298.15 K, x1 = 0.4967 | 1.199
298.15 K, x1 = 0.5999 | 1.158
298.15 K, x1 = 0.7024 | 1.143
298.15 K, x1 = 0.7987 | 1.151
298.15 K, x1 = 0.899 | 1.199
313.15 K, x1 = 0.1002 | 1.369
313.15 K, x1 = 0.2041 | 1.123
313.15 K, x1 = 0.3125 | 0.9913
313.15 K, x1 = 0.3996 | 0.9298
313.15 K, x1 = 0.5046 | 0.8882
313.15 K, x1 = 0.6034 | 0.8716
313.15 K, x1 = 0.7008 | 0.8721
313.15 K, x1 = 0.8052 | 0.8932
313.15 K, x1 = 0.9001 | 0.9458

Nc1cccc(Cl)c1 + CCC(C)O
viscosity [mPa·s], 101 kPa
Details | x1 = 0.0889 | x1 = 0.1799 | x1 = 0.2733 | x1 = 0.3691 | x1 = 0.4674 | x1 = 0.5683 | x1 = 0.6719 | x1 = 0.7783 | x1 = 0.8876
303.15 K | 2.756 | 2.919 | 3.087 | 3.256 | 3.422 | 3.585 | 3.744 | 3.904 | 4.07
308.15 K | 2.318 | 2.483 | 2.65 | 2.817 | 2.983 | 3.148 | 3.313 | 3.48 | 3.654
313.15 K | 2.001 | 2.157 | 2.312 | 2.467 | 2.623 | 2.779 | 2.937 | 3.097 | 3.261
318.15 K | 1.706 | 1.857 | 2.003 | 2.147 | 2.29 | 2.434 | 2.579 | 2.727 | 2.874

CC12CCC(CC1)C(C)(C)O2 + CCCCCC
298.15 K, 101.33 kPa
Details | viscosity [mPa·s]
x2 = 0.0339 | 2.317
x2 = 0.0677 | 2.11
x2 = 0.1616 | 1.642
x2 = 0.2491 | 1.325
x2 = 0.3454 | 1.063
x2 = 0.4734 | 0.8
x2 = 0.6205 | 0.593
x2 = 0.7181 | 0.491
x2 = 0.8281 | 0.4
x2 = 0.8953 | 0.359
x2 = 0.9363 | 0.33

CCCOC(=O)CC + CCCCCC
298.15 K, 101.33 kPa
Details | viscosity [mPa·s]
x1 = 0.0581 | 0.299
x1 = 0.1227 | 0.31
x1 = 0.2151 | 0.33
x1 = 0.3111 | 0.355
x1 = 0.3983 | 0.379
x1 = 0.4343 | 0.389
x1 = 0.4898 | 0.401
x1 = 0.5466 | 0.421
x1 = 0.586 | 0.433
x1 = 0.68 | 0.465
x1 = 0.8894 | 0.557
x1 = 0.9133 | 0.573

Cc1ccccc1Cl + CCCCCC
viscosity [mPa·s], 100 kPa
Details | 298.15 K | 308.15 K | 318.15 K
x1 = 0.0629 | 0.341 | 0.315 | 0.292
x1 = 0.1435 | 0.369 | 0.338 | 0.313
x1 = 0.2364 | 0.398 | 0.37 | 0.343
x1 = 0.3403 | 0.436 | 0.401 | 0.37
x1 = 0.4252 | 0.477 | 0.437 | 0.401
x1 = 0.4608 | 0.499 | 0.451 | 0.414
x1 = 0.5249 | 0.54 | 0.485 | 0.445
x1 = 0.5742 | 0.574 | 0.515 | 0.471
x1 = 0.6237 | 0.611 | 0.546 | 0.496
x1 = 0.6816 | 0.657 | 0.585 | 0.531
x1 = 0.7398 | 0.705 | 0.624 | 0.565
x1 = 0.8335 | 0.785 | 0.7 | 0.63
x1 = 0.9276 | 0.889 | 0.789 | 0.706

C1C[C@@H]2[C@H]3CC[C@H](C3)[C@@H]2C1 + CCCCCCCC
viscosity [mPa·s], 100 kPa
Details | x1 = 0.1007 | x1 = 0.2005 | x1 = 0.2991 | x1 = 0.4 | x1 = 0.5001 | x1 = 0.5986 | x1 = 0.6988 | x1 = 0.8019 | x1 = 0.9005
293.15 K | 0.616 | 0.697 | 0.806 | 0.956 | 1.085 | 1.282 | 1.537 | 1.896 | 2.342
298.15 K | 0.582 | 0.655 | 0.756 | 0.892 | 1.007 | 1.187 | 1.415 | 1.735 | 2.13
303.15 K | 0.551 | 0.618 | 0.711 | 0.83 | 0.94 | 1.102 | 1.311 | 1.597 | 1.95
308.15 K | 0.523 | 0.585 | 0.67 | 0.78 | 0.879 | 1.027 | 1.215 | 1.475 | 1.793
313.15 K | 0.499 | 0.555 | 0.634 | 0.733 | 0.825 | 0.96 | 1.13 | 1.367 | 1.654

CCCOC(=O)CC + CCCCCCCCCC
298.15 K, 101.33 kPa
Details | viscosity [mPa·s]
x2 = 0.0964 | 0.647
x2 = 0.1323 | 0.65
x2 = 0.1683 | 0.653
x2 = 0.2534 | 0.661
x2 = 0.3486 | 0.672
x2 = 0.3989 | 0.68
x2 = 0.5459 | 0.706
x2 = 0.6381 | 0.728
x2 = 0.7337 | 0.756
x2 = 0.8679 | 0.802
x2 = 0.9275 | 0.827

CCC(C)c1ccccc1 (stereo not drawn) + CCCCCCCCCCCC
viscosity [mPa·s], 102 kPa
Details | x1 = 0.1008 | x1 = 0.2007 | x1 = 0.2993 | x1 = 0.4003 | x1 = 0.4998 | x1 = 0.62 | x1 = 0.6996 | x1 = 0.7999 | x1 = 0.9004
293.15 K | 1.41 | 1.33 | 1.26 | 1.19 | 1.131 | 1.064 | 1.027 | 0.992 | 0.959
303.15 K | 1.19 | 1.128 | 1.072 | 1.02 | 0.971 | 0.923 | 0.896 | 0.862 | 0.835
313.15 K | 1.015 | 0.973 | 0.935 | 0.893 | 0.853 | 0.812 | 0.784 | 0.755 | 0.732
323.15 K | 0.888 | 0.852 | 0.817 | 0.783 | 0.751 | 0.717 | 0.694 | 0.669 | 0.649

CCCOC(=O)CC + CCCCCCCCCCCCCC
298.15 K, 101.33 kPa
Details | viscosity [mPa·s]
x2 = 0.0774 | 0.704
x2 = 0.1347 | 0.757
x2 = 0.2041 | 0.828
x2 = 0.2829 | 0.915
x2 = 0.3321 | 0.972
x2 = 0.4571 | 1.13
x2 = 0.5528 | 1.263
x2 = 0.6895 | 1.473
x2 = 0.8219 | 1.706
x2 = 0.9084 | 1.878

CCCCCCCCCCCCCC[P+](CCCCCC)(CCCCCC)CCCCCC.c1c[n-]nn1 + CCCCCCCCCCCCCC[P+](CCCCCC)(CCCCCC)CCCCCC.O=S(=O)([N-]S(=O)(=O)C(F)(F)F)C(F)(F)F
viscosity [mPa·s], 100 kPa
Details | x1 = 0.098 | x1 = 0.201 | x1 = 0.3 | x1 = 0.401 | x1 = 0.5 | x1 = 0.599 | x1 = 0.7 | x1 = 0.797 | x1 = 0.901
293.15 K | 425 | 473 | 495 | 465 | 502 | 539 | 533 | 547 | 553
298.15 K | 313 | 348 | 362 | 338 | 363 | 390 | 385 | 393 | 397
303.15 K | 236 | 261 | 270 | 251 | 270 | 288 | 284 | 289 | 291
308.15 K | 181 | 200 | 207 | 191 | 204 | 218 | 214 | 217 | 220
313.15 K | 142 | 156 | 160 | 148 | 158 | 168 | 165 | 167 | 168
318.15 K | 112 | 124 | 127 | 117 | 124 | 132 | 129 | 131 | 132
323.15 K | 91 | 100 | 102 | 94 | 100 | 106 | 103 | 104 | 106
